Reference: the NIST ThermoML archive (doi:10.1021/je060380p)
Numbers after ± are expanded uncertainties.

Conditions: Crystal; visual observation

Normal melting temperature: 216 ± 1 °C
SMILES: c1ccc2cc3ccccc3cc2c1 [anthracene]
